According to ChEMBL document CHEMBL5338739, “Discovery of Dual Lysine Methyltransferase G9a and EZH2 Inhibitors with In Vivo Efficacy against Malignant Rhabdoid Tumor” (J Med Chem, 2023):
Activity calls are given as the source filed them. The calls are words filed in the database; no cut-off is given here.

What was measured:
[1] = AUC (0 to infinity) in Sprague-Dawley rat at 30 mg/kg, po administered for 24 hrs by HPLC analysis; format: ADME, organism-based; parameters: time 24 hrs, dose 30 mg/kg, route po; settings: in vivo
[2] = Toxicity in BALB/c nude mouse xenografted with human RD cells assessed as effect on spleen viscera index at 10 to 20 mg/kg, ip administered for 5 consecutive days followed by 2 rest days for 3 weeks; format: organism-based; settings: in vivo, 504 h, dose 10-20 mg/kg
[3] = Cmax in Sprague-Dawley rat at 30 mg/kg, po administered for 24 hrs by HPLC analysis; format: ADME, organism-based; parameters: time 24 hrs, dose 30 mg/kg, route po; settings: in vivo
[4] = molecular target: T1, Histone-lysine N-methyltransferase EHMT2 (Homo sapiens) (UniProt Q96KQ7); assay: Inhibition of human recombinant EHMT2 G9a using SAM as substrate at 10 uM by time-resolved fluorescence assay relative to control
T1 sequence (whole entry): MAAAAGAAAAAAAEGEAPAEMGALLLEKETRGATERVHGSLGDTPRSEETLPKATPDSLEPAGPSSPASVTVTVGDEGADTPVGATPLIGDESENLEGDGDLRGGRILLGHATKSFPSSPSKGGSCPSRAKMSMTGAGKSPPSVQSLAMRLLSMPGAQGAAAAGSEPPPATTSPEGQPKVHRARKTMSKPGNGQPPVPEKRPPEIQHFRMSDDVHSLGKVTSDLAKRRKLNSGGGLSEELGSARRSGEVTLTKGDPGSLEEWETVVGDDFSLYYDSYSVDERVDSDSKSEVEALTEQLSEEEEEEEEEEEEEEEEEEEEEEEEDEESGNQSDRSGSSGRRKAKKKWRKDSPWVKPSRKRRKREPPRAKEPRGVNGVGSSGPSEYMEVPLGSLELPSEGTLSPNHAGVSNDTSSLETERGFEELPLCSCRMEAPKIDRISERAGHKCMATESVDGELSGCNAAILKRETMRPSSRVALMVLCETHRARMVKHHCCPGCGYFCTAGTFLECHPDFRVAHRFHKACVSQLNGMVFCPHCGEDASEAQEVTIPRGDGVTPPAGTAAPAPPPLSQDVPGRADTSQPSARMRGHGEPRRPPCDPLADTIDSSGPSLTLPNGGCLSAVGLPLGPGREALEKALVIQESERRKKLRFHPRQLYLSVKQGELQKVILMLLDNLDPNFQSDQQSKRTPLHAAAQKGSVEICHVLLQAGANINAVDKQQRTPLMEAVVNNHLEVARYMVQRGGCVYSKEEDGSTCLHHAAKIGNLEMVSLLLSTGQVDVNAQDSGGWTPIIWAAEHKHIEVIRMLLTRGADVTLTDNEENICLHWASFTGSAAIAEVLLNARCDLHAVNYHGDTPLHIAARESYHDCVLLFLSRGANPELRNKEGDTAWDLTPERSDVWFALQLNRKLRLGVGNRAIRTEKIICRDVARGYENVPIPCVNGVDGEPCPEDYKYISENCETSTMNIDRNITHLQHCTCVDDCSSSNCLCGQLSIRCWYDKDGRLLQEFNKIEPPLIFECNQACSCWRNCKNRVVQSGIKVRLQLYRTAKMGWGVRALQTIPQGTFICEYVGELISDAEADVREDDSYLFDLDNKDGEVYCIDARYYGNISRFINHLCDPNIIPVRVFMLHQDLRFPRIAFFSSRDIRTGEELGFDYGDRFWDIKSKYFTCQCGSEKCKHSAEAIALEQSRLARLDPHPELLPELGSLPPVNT

[5] = molecular target: T2, Histone-lysine N-methyltransferase EHMT2 (Homo sapiens, UniProt Q96KQ7); assay: Inhibition of human recombinant EHMT2 G9a using SAM as substrate incubated for 1 hr by microplate luminescence based HMT assay
T2 sequence (Q96KQ7 whole entry): T1 sequence (whole entry)

RD [6] = assay: Antitumor activity against human RD cells xenografted in BALB/c nude mouse assessed as suppression of tumor growth administered intraperitoneally for 5 consecutive days followed by 2 rest days for 3 weeks; settings: dose 10-20 mg/kg, route ip
[7] = Cmax in Sprague-Dawley rat at 10 mg/kg, iv administered for 12 hrs by HPLC analysis; format: ADME, organism-based; parameters: dose 10 mg/kg, time 12 hrs, route iv; settings: in vivo
[8] = Apparent volume of distribution in Sprague-Dawley rat at 30 mg/kg, po administered for 24 hrs by HPLC analysis; format: ADME, organism-based; settings: in vivo
RD [9] = assay: Antitumor activity against EZH2 and G9a knockdown human RD cells xenografted in BALB/c nude mouse assessed as tumor growth inhibition at 20 mg/kg, ip administered for 15 days; format: functional, organism-based; settings: time 15.0 day

Compound: COc1cc2c(NCc3c(C)cc(C)[nH]c3=O)nc(N3CCC(F)(F)CC3)nc2cc1OCCCN1CCCC1
- AUC(0-inf) [1]: 11400 ng·h/mL
- Activity [2]: Non-Toxic
- Cmax [3]: 3180 ng/mL
- inhibition [4]: 99.1%
- IC50 [5]: 2.9 nM
- Activity (RD [6]): Dose-Dependent Effect
- Cmax [7]: 1380 ng/mL
- Vc [8]: 17.518 L/kg
- inhibition (RD [9]): inactive
